# Assay results reported in US20240100065A1, “METHODS FOR TREATING RECEPTOR-INTERACTING PROTEIN KINASE 1-MEDIATED DISEASES” (Genzyme Corporation, priority 2022, published 2024).
# Assay: Safety and tolerability (TEAEs, PCSAs, laboratory tests) in phase 1 study Parts 1a, 1b, 2
# Type: in vivo, healthy adult participants (human)
# Experimental: This single ascending dose (SAD) study consisted of three parts: Part 1a, which is a phase 1, randomized, placebo-controlled, double-blind, sequential ascending single dose study; Part 1b, which is phase 1, open-label, sequential single dose study; and Part 2, which is an ascending 14-day repeated oral dose study.
# Part 1a evaluated 4 sequential ascending dose levels of Compound 1 under fasted conditions: 10 mg, 20 mg, 30 mg, and 40 mg, each dose per cohort. Participants were fasted overnight for at least 8 hours before the morning dose and 2 hours after dosing.
# Part 1b is an open-label study with two single dose levels of Compound 1, previously tested for safety/tolerability in SAD cohorts of Part 1a, were selected (10 mg and 40 mg) and sequentially administered under a fed condition, each dose per cohort. Participants were fasted overnight for at least 8 hours, and then fed with a light breakfast approximately 30 minutes before Compound 1 dosing. In both Part 1a and 1b, all participants received one single dose of treatment.
# Part 2 was a randomized, double-blind, placebo-controlled study that evaluated 14-day multiple ascending oral doses of Compound 1 once daily (OD) or twice daily (BID) regimen under fasted conditions: 10 mg QD, 20 mg QD, 15 mg BID, and 20 mg BID. Participants fasted overnight for at least 8 hours before the morning dose and 2 hours after dosing on Day 1 and Day 14. All other morning doses were administered after an overnight fast and approximately 30 minutes before a breakfast snack. Sentinel dosing approach was followed where two of ten participants in each cohort were dosed the first day (n=1, Compound; n=1, placebo) in advance of the full cohort. The remaining 8 participants from each cohort were randomized to receive either Compound or placebo (randomized 7:1) on the following days with at least 48-hour interval from dosing of the sentinel participants, allowing a safety evaluation at the predicted steady state.
# Safety and tolerability were assessed by physical examination, neurological examination, monitoring adverse events (AEs) and potentially clinically significant abnormalities (PCSAs) in clinical laboratory tests (hematology, clinical chemistry, and urinalysis), vital signs (body temperature, blood pressure and heart rate), and ECG parameters (heart rate, RR, PR, QRS, QT, QTcF, QTcB intervals) measured in the standard 12-lead ECG or ECGs extracted from 24-hour Holter ECG data.
# Safety population included all participants who received at least one dose of study intervention (Compound 1 or placebo). All safety assessments (AEs, laboratory parameters, vital signs) were based on the review of individual values and were summarized using descriptive statistics. Safety analysis was focused on treatment-emergent period, defined as the time from the first investigational medicinal product (IMP) administration up to the end of study visit (included). AEs were coded according to the Medical Dictionary for Regulatory Activities (MedDRA, version 23.1 in Part 1a and Part 1b; version 24 in Part 2). Severity was graded from Grade 1 to 4 according to the Food and Drug Administration (FDA) Guidance for Industry. Number (%) of participants experiencing TEAEs and potentially clinically significant abnormality (PCSAs) in clinical chemistry, vital signs, and ECGs were summarized by dose level group.
structure (smiles),measurement,setting,value
"CC(C)(C(=O)N1CCOc2c(C#N)cncc2C1)C(F)F [Compound 1, 4-(3,3-difluoro-2,2-dimethyl-propanoyl)-3,5-dihydro-2H-pyrido[3,4-f] [1,4]oxazepine-9-carbonitrile]","Any Grade ≥3 TEAE, participants",Part 1a single 10 mg fasted,0 n
same,"Any TEAE, participants",Part 1a single 10 mg fasted,2 n
same,"Any treatment-emergent AESI, participants",Part 1a single 10 mg fasted,0 n
same,"Any treatment-emergent SAE, participants",Part 1a single 10 mg fasted,0 n
same,"TEAE Blood creatine phosphokinase increased, participants",Part 1a single 10 mg fasted,0 n
same,"TEAE Cardiac disorders, participants",Part 1a single 10 mg fasted,1 n
same,"TEAE Dermatitis contact, participants",Part 1a single 10 mg fasted,1 n
same,"TEAE Dizziness, participants",Part 1a single 10 mg fasted,0 n
same,"TEAE Eye disorders, participants",Part 1a single 10 mg fasted,0 n
same,"TEAE Fatigue, participants",Part 1a single 10 mg fasted,0 n
same,"TEAE General disorders and administration site conditions, participants",Part 1a single 10 mg fasted,0 n
same,"TEAE Headache, participants",Part 1a single 10 mg fasted,0 n
same,"TEAE Investigations, participants",Part 1a single 10 mg fasted,0 n
same,"TEAE Keratitis, participants",Part 1a single 10 mg fasted,0 n
same,"TEAE Medical device site dermatitis, participants",Part 1a single 10 mg fasted,0 n
same,"TEAE Musculoskeletal and connective tissue disorders, participants",Part 1a single 10 mg fasted,0 n
same,"TEAE Myalgia, participants",Part 1a single 10 mg fasted,0 n
same,"TEAE Nervous system disorders, participants",Part 1a single 10 mg fasted,0 n
same,"TEAE Presyncope, participants",Part 1a single 10 mg fasted,0 n
same,"TEAE Skin and subcutaneous tissue disorders, participants",Part 1a single 10 mg fasted,1 n
same,"TEAE Skin irritation, participants",Part 1a single 10 mg fasted,0 n
same,"TEAE Tachycardia, participants",Part 1a single 10 mg fasted,0 n
same,"TEAE Thrombophlebitis, participants",Part 1a single 10 mg fasted,0 n
same,"TEAE Vascular disorders, participants",Part 1a single 10 mg fasted,0 n
same,"TEAE Ventricular extrasystoles, participants",Part 1a single 10 mg fasted,1 n
same,"TEAE Vessel puncture site hypoaesthesia, participants",Part 1a single 10 mg fasted,0 n
same,"TEAE Vessel puncture site pain, participants",Part 1a single 10 mg fasted,0 n
same,"Any Grade ≥3 TEAE, participants",Part 1a single 20 mg fasted,0 n
same,"Any TEAE, participants",Part 1a single 20 mg fasted,1 n
same,"Any treatment-emergent AESI, participants",Part 1a single 20 mg fasted,0 n
same,"Any treatment-emergent SAE, participants",Part 1a single 20 mg fasted,0 n
same,"TEAE Blood creatine phosphokinase increased, participants",Part 1a single 20 mg fasted,0 n
same,"TEAE Cardiac disorders, participants",Part 1a single 20 mg fasted,1 n
same,"TEAE Dermatitis contact, participants",Part 1a single 20 mg fasted,0 n
same,"TEAE Dizziness, participants",Part 1a single 20 mg fasted,0 n
same,"TEAE Eye disorders, participants",Part 1a single 20 mg fasted,0 n
same,"TEAE Fatigue, participants",Part 1a single 20 mg fasted,0 n
same,"TEAE General disorders and administration site conditions, participants",Part 1a single 20 mg fasted,0 n
same,"TEAE Headache, participants",Part 1a single 20 mg fasted,1 n
same,"TEAE Investigations, participants",Part 1a single 20 mg fasted,0 n
same,"TEAE Keratitis, participants",Part 1a single 20 mg fasted,0 n
same,"TEAE Medical device site dermatitis, participants",Part 1a single 20 mg fasted,0 n
same,"TEAE Musculoskeletal and connective tissue disorders, participants",Part 1a single 20 mg fasted,0 n
same,"TEAE Myalgia, participants",Part 1a single 20 mg fasted,0 n
same,"TEAE Nervous system disorders, participants",Part 1a single 20 mg fasted,1 n
same,"TEAE Presyncope, participants",Part 1a single 20 mg fasted,0 n
same,"TEAE Skin and subcutaneous tissue disorders, participants",Part 1a single 20 mg fasted,0 n
same,"TEAE Skin irritation, participants",Part 1a single 20 mg fasted,0 n
same,"TEAE Tachycardia, participants",Part 1a single 20 mg fasted,1 n
same,"TEAE Thrombophlebitis, participants",Part 1a single 20 mg fasted,0 n
same,"TEAE Vascular disorders, participants",Part 1a single 20 mg fasted,0 n
same,"TEAE Ventricular extrasystoles, participants",Part 1a single 20 mg fasted,0 n
same,"TEAE Vessel puncture site hypoaesthesia, participants",Part 1a single 20 mg fasted,0 n
same,"TEAE Vessel puncture site pain, participants",Part 1a single 20 mg fasted,0 n
same,"Any Grade ≥3 TEAE, participants",Part 1a single 30 mg fasted,0 n
same,"Any TEAE, participants",Part 1a single 30 mg fasted,3 n
same,"Any treatment-emergent AESI, participants",Part 1a single 30 mg fasted,0 n
same,"Any treatment-emergent SAE, participants",Part 1a single 30 mg fasted,0 n
same,"Dizziness, events",Part 1a single 30 mg fasted,3 events
same,"TEAE Blood creatine phosphokinase increased, participants",Part 1a single 30 mg fasted,0 n
same,"TEAE Cardiac disorders, participants",Part 1a single 30 mg fasted,0 n
same,"TEAE Dermatitis contact, participants",Part 1a single 30 mg fasted,1 n
same,"TEAE Dizziness, participants",Part 1a single 30 mg fasted,2 n
same,"TEAE Eye disorders, participants",Part 1a single 30 mg fasted,1 n
same,"TEAE Fatigue, participants",Part 1a single 30 mg fasted,1 n
same,"TEAE General disorders and administration site conditions, participants",Part 1a single 30 mg fasted,1 n
same,"TEAE Headache, participants",Part 1a single 30 mg fasted,0 n
same,"TEAE Investigations, participants",Part 1a single 30 mg fasted,0 n
same,"TEAE Keratitis, participants",Part 1a single 30 mg fasted,1 n
same,"TEAE Medical device site dermatitis, participants",Part 1a single 30 mg fasted,0 n
same,"TEAE Musculoskeletal and connective tissue disorders, participants",Part 1a single 30 mg fasted,0 n
same,"TEAE Myalgia, participants",Part 1a single 30 mg fasted,0 n
same,"TEAE Nervous system disorders, participants",Part 1a single 30 mg fasted,2 n
same,"TEAE Presyncope, participants",Part 1a single 30 mg fasted,0 n
same,"TEAE Skin and subcutaneous tissue disorders, participants",Part 1a single 30 mg fasted,1 n
same,"TEAE Skin irritation, participants",Part 1a single 30 mg fasted,0 n
same,"TEAE Tachycardia, participants",Part 1a single 30 mg fasted,0 n
same,"TEAE Thrombophlebitis, participants",Part 1a single 30 mg fasted,1 n
same,"TEAE Vascular disorders, participants",Part 1a single 30 mg fasted,1 n
same,"TEAE Ventricular extrasystoles, participants",Part 1a single 30 mg fasted,0 n
same,"TEAE Vessel puncture site hypoaesthesia, participants",Part 1a single 30 mg fasted,0 n
same,"TEAE Vessel puncture site pain, participants",Part 1a single 30 mg fasted,0 n
same,"Any Grade ≥3 TEAE, participants",Part 1a single 40 mg fasted,0 n
same,"Any TEAE, participants",Part 1a single 40 mg fasted,3 n
same,"Any treatment-emergent AESI, participants",Part 1a single 40 mg fasted,0 n
same,"Any treatment-emergent SAE, participants",Part 1a single 40 mg fasted,0 n
same,"Dizziness, events",Part 1a single 40 mg fasted,1 event
same,"TEAE Blood creatine phosphokinase increased, participants",Part 1a single 40 mg fasted,0 n
same,"TEAE Cardiac disorders, participants",Part 1a single 40 mg fasted,1 n
same,"TEAE Dermatitis contact, participants",Part 1a single 40 mg fasted,1 n
same,"TEAE Dizziness, participants",Part 1a single 40 mg fasted,1 n
